In this test the test system is 27 hsp complex. The test can be described thus: Phosphorylation of the 27 hsp complex in the cytosolic fraction of 32P-labeled fibroblasts. It counts as cell-based, human. The protocol: Human fibroblasts prelabeled with [³²P]orthophosphate (1 mCi/ml) were incubated with increasing concentrations of OA or TNF. Cytosolic fractions were prepared from the cells and subjected to two-dimensional gel electrophoresis. a, control; b, 80 nM OA; c, 160 nM OA; d, 50 units/ml TNF; and e, 320 nM OA.
The fibroblasts were treated with 200 nM of okadaic acid for 0 min (a), 5 min (b), 15 min (c), or 30 min (d). Cytosolic fractions were prepared from the fibroblasts and analyzed by two-dimensional gel electrophoresis.
Radiolabeling of Cells and Cell Lysis - For labeling with [³²P]orthophosphate cells were plated onto 90 mm plastic tissue culture dishes and incubated for 3 days for the cells to become confluent. […]
Two-dimensional Gel Electrophoresis - The lyophilized fractions (each of approximately 12 µg) were subjected to isoelectric focusing for 18,000 V/h with pH 3-10 ampholytes using the Millipore Investigator two-dimensional electrophoresis system (Millipore). […] Molecular weight marker proteins from Sigma were detected by Coomassie Blue staining and marked on the autoradiogram. ³²P-Labeled 27 hsp complex prepared from human fibroblasts heat shocked at 43°C for 30 min was also used as a marker. […]

Regarding `C=C1[C@@H](O)[C@@H]2O[C@]3(CC[C@H](/C=C/[C@@H](C)[C@@H]4CC(C)=C[C@@]5(O[C@H](C[C@@](C)(O)C(=O)O)CC[C@H]5O)O4)O3)CC[C@H]2O[C@@H]1[C@@H](O)C[C@H](C)[C@H]1O[C@@]2(CCCCO2)CC[C@H]1C` [okadaic acid], the “phosphorylation state of the 27 hsp complex (in words)” value (200 nM, after 30 min) is recorded as “hyperphosphorylated”. The “concentration producing about the same increase in phosphorylation of the 27 hsp complex as 50 units/ml of TNF” value (15 min) was in the range of 160 to 320 nM.

(Values after EP0551200A1, “Protein phosphatase inhibitors for use in therapy” (priority 1992, dated 1993).)
